# [ ]: non-standard residue; d: D form. Aib = CC(C)(N)C(=O)O
# Test system: primary murine T-cells
# Experiment: Cytokine secretion on protein level in activated primary murine T-cells (13-plex FACS / Luminex, supernatant)
# Format: cell-based, C57BL/6 mice
# Procedure, shortened: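 T-cells from secondary lymphatic organs of naïve C57BL/6 mice, stimulated with PMA/Ionomycin or IFN-γ; supernatant cytokines measured by 13-plex FACS 48 h and 72 h after stimulation. In another run, PMA/Ionomycin-stimulated cells received compounds at 10^−7, 10^−9 and 10^−11 M, with IFN-γ, IL-17 and IL-10 measured by Luminex.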
# [1] = primary murine T-cells stimulated with IFN-γ, substance 10^−9M
# [2] = primary murine T-cells stimulated with PBS, substance 10^−9M
# [3] = primary murine T-cells stimulated with PMA/Ionomycin, substance 10^−9M
# [4] = primary murine T-cells stimulated with IFN-γ, 10^−9M
# [5] = primary murine T-cells stimulated with PBS, 10^−9M
# [6] = primary murine T-cells stimulated with PMA/Ionomycin, 10^−9M
# [7] = primary murine T-cells stimulated with PMA/Ionomycin, 10^−9M, 1:10 dilution of the supernatants
substance,measurement,setting,value
H-Phe-Pro-[Aib]-OH [Example 13],IL-1 cytokine concentration,[1],82.68 pg/mL
same,IL-2 cytokine concentration,[1],237.05 pg/mL
same,IL-4 cytokine concentration,[1],0 pg/mL
same,IL-5 cytokine concentration,[1],342.32 pg/mL
same,IL-6 cytokine concentration,[1],220.06 pg/mL
same,IL-10 cytokine concentration,[1],968.94 pg/mL
same,IL-13 cytokine concentration,[1],0 pg/mL
same,IL-17 cytokine concentration,[1],26.88 pg/mL
same,IL-21 cytokine concentration,[1],0 pg/mL
same,IL-22 cytokine concentration,[1],334.1 pg/mL
same,IL-27 cytokine concentration,[1],151.6 pg/mL
same,TNF-α cytokine concentration,[1],52.48 pg/mL
same,IFN-γ cytokine concentration,[2],5058.59 pg/mL
same,IL-1 cytokine concentration,[2],64.4 pg/mL
same,IL-2 cytokine concentration,[2],173.84 pg/mL
same,IL-4 cytokine concentration,[2],25.55 pg/mL
same,IL-5 cytokine concentration,[2],401.21 pg/mL
same,IL-6 cytokine concentration,[2],168.6 pg/mL
same,IL-10 cytokine concentration,[2],829.52 pg/mL
same,IL-13 cytokine concentration,[2],0 pg/mL
same,IL-17 cytokine concentration,[2],0 pg/mL
same,IL-21 cytokine concentration,[2],0 pg/mL
same,IL-22 cytokine concentration,[2],0 pg/mL
same,IL-27 cytokine concentration,[2],302.6 pg/mL
same,TNF-α cytokine concentration,[2],62.22 pg/mL
same,IFN-γ cytokine concentration,[3],8109.91 pg/mL
same,IL-1 cytokine concentration,[3],329.99 pg/mL
same,IL-2 cytokine concentration,[3],260.49 pg/mL
same,IL-4 cytokine concentration,[3],135.41 pg/mL
same,IL-5 cytokine concentration,[3],452.71 pg/mL
same,IL-6 cytokine concentration,[3],404.54 pg/mL
same,IL-10 cytokine concentration,[3],1267.4 pg/mL
same,IL-13 cytokine concentration,[3],0 pg/mL
same,IL-17 cytokine concentration,[3],0 pg/mL
same,IL-21 cytokine concentration,[3],432.64 pg/mL
same,IL-22 cytokine concentration,[3],111.64 pg/mL
same,IL-27 cytokine concentration,[3],387.94 pg/mL
same,TNF-α cytokine concentration,[3],69.4 pg/mL
"alpha-melanocyte-stimulating hormone [α-MSH, reference compound]",IL-1 cytokine concentration,[4],14.89 pg/mL
same,IL-2 cytokine concentration,[4],0 pg/mL
same,IL-4 cytokine concentration,[4],0 pg/mL
same,IL-5 cytokine concentration,[4],0 pg/mL
same,IL-6 cytokine concentration,[4],0 pg/mL
same,IL-10 cytokine concentration,[4],0 pg/mL
same,IL-13 cytokine concentration,[4],0 pg/mL
same,IL-17 cytokine concentration,[4],0 pg/mL
same,IL-21 cytokine concentration,[4],0 pg/mL
same,IL-22 cytokine concentration,[4],0 pg/mL
same,IL-27 cytokine concentration,[4],0 pg/mL
same,TNF-α cytokine concentration,[4],0 pg/mL
same,IL-1 cytokine concentration,[1],88.22 pg/mL
same,IL-2 cytokine concentration,[1],96.1 pg/mL
same,IL-4 cytokine concentration,[1],20.56 pg/mL
same,IL-5 cytokine concentration,[1],220.39 pg/mL
same,IL-6 cytokine concentration,[1],133.9 pg/mL
same,IL-10 cytokine concentration,[1],1117.07 pg/mL
same,IL-13 cytokine concentration,[1],0 pg/mL
same,IL-17 cytokine concentration,[1],55.11 pg/mL
same,IL-21 cytokine concentration,[1],0 pg/mL
same,IL-22 cytokine concentration,[1],50.6 pg/mL
same,IL-27 cytokine concentration,[1],104.04 pg/mL
same,TNF-α cytokine concentration,[1],36.8 pg/mL
same,IFN-γ cytokine concentration,[5],0 pg/mL
same,IL-1 cytokine concentration,[5],0 pg/mL
same,IL-2 cytokine concentration,[5],0 pg/mL
same,IL-4 cytokine concentration,[5],0 pg/mL
same,IL-5 cytokine concentration,[5],0 pg/mL
same,IL-6 cytokine concentration,[5],16.44 pg/mL
same,IL-10 cytokine concentration,[5],55.47 pg/mL
same,IL-13 cytokine concentration,[5],0 pg/mL
same,IL-17 cytokine concentration,[5],0 pg/mL
same,IL-21 cytokine concentration,[5],0 pg/mL
same,IL-22 cytokine concentration,[5],0 pg/mL
same,IL-27 cytokine concentration,[5],0 pg/mL
same,TNF-α cytokine concentration,[5],0 pg/mL
same,IFN-γ cytokine concentration,[2],0 pg/mL
same,IL-1 cytokine concentration,[2],58.5 pg/mL
same,IL-2 cytokine concentration,[2],105.75 pg/mL
same,IL-4 cytokine concentration,[2],62.93 pg/mL
same,IL-5 cytokine concentration,[2],281.14 pg/mL
same,IL-6 cytokine concentration,[2],96.88 pg/mL
same,IL-10 cytokine concentration,[2],1157.87 pg/mL
same,IL-13 cytokine concentration,[2],0 pg/mL
same,IL-17 cytokine concentration,[2],0 pg/mL
same,IL-21 cytokine concentration,[2],0 pg/mL
same,IL-22 cytokine concentration,[2],72.14 pg/mL
same,IL-27 cytokine concentration,[2],77.41 pg/mL
same,TNF-α cytokine concentration,[2],106.1 pg/mL
same,IL-1 cytokine concentration,[6],28.92 pg/mL
same,IL-4 cytokine concentration,[6],0 pg/mL
same,IL-5 cytokine concentration,[6],262.76 pg/mL
same,IL-6 cytokine concentration,[6],114.47 pg/mL
same,IL-10 cytokine concentration,[6],276.08 pg/mL
same,IL-13 cytokine concentration,[6],3966.69 pg/mL
same,IL-17 cytokine concentration,[6],311.07 pg/mL
same,IL-21 cytokine concentration,[6],0 pg/mL
same,IL-22 cytokine concentration,[6],356.41 pg/mL
same,IL-27 cytokine concentration,[6],0 pg/mL
same,TNF-α cytokine concentration,[6],535.51 pg/mL
same,IFN-γ* cytokine concentration,[7],0 pg/mL
same,IL-2* cytokine concentration,[7],849.44 pg/mL
same,IFN-γ cytokine concentration,[3],1458.12 pg/mL
same,IL-1 cytokine concentration,[3],217.32 pg/mL
same,IL-2 cytokine concentration,[3],163.19 pg/mL
same,IL-4 cytokine concentration,[3],91.65 pg/mL
same,IL-5 cytokine concentration,[3],215.44 pg/mL
same,IL-6 cytokine concentration,[3],174.22 pg/mL
same,IL-10 cytokine concentration,[3],1250.21 pg/mL
same,IL-13 cytokine concentration,[3],0 pg/mL
same,IL-17 cytokine concentration,[3],29.47 pg/mL
same,IL-21 cytokine concentration,[3],0 pg/mL
same,IL-22 cytokine concentration,[3],143.37 pg/mL
same,IL-27 cytokine concentration,[3],104.52 pg/mL
same,TNF-α cytokine concentration,[3],77.76 pg/mL

# Reference: patent US10954269B2, “Anti-inflammatory tripeptides” (Dr. August Wolff Gmbh & Co. KG Arzneimittel, priority 2013, dated 2021)
